Patent US20240190871A1, “KRASG12D INHIBITOR, PREPARATION METHOD THEREFOR AND APPLICATION THEREOF” (YA THERAPEUTICS INC, priority 2021, published 2024)

Biological target: KRAS-G2D/SOS1 (Homo sapiens, UniProt P01116, G12D)
Test: KRAS-G2D/SOS1 binding experiment (HTRF)
Settings: His-tagged G12D protein and Tag1-SOS protein, room temperature
Protocol: • A) Dilute Tagged-His Tag G12D protein and Tag1-SOS protein with diluent at 1:100, and use detection buffer for anti-Tag1-Tb3+ antibody and anti-Tag2-XL665 at 1:100 or 1:25, respectively Dilute. • B) Dilute the compound to be tested with diluent starting from […] concentration, 4 times gradient, a total of 6 concentration gradients, and dilute to 10× stock solution. • C) In a 96-well plate, add 4 uL Tagged-His Tag G12D protein, 4 uL Tag1-SOS protein, 2 ul dilution solution (positive control) or test compound (different concentrations of 10× stock solution) to each well in sequence, a total of 10 ul, and incubate at room temperature for […], add pre-mixed 5 uL anti-Tag1-Tb3+ and 5 uL anti-Tag2-xL665, seal the plate, incubate at room temperature for 2 hours, and read the HTRF signal with a TECAN INFINITEF NANO+ microplate reader.
The ratio of […] and donor excitation signals for each single well was calculated using the formula ratio=665 nm signal value/620 nm signal value×[…]. Data were processed using Graphpadprism5 software. IC50 values were calculated by sigmoidal dose-response curve fitting.

Chain of KRAS-G2D/SOS1 (P01116 1-188 isoform P01116-2 G12D): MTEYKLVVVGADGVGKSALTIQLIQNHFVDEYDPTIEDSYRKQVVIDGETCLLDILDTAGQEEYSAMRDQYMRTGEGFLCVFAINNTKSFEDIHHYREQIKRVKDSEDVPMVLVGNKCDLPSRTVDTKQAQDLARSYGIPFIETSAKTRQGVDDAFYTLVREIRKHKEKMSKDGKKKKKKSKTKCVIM

Compound | IC50 [µM]
Oc1cc(-c2nc3nc(OC[C@@]45CCCN4C[C@H](F)C5)nc(N4C5CNCC4C5)c3cc2F)c2c(F)cccc2c1 [Compound 54, 4-(4-(3,6-diazabicyclo [3.1.1]heptan-6-y1)-6-fluoro-2-(((2R,7aS)-2-fluorohexahydro-1H-pyrrolizin-7a-yl)methoxy)pyrido[2,3-d]pyrimidin-7-y1)-5-fluoronaphthalen-2-ol] | ≤ 0.05

System: ATCC CRL-1739 (KRASG^12D mutant) cells
Test: Tumor cell proliferation inhibition experiment (Cell Titer-Glo, 72 hours)
Format: cell-based
Settings: 72 hours incubation, 10% fetal bovine serum, ATP content
Protocol: The ATCC CRL-1739 (KRASG^12D mutant) cells were digested, centrifuged and resuspended, and the cell density was measured with a Scepter automatic cell counter. The cells were diluted to a solution containing 44,000 cells per milliliter, and the density-adjusted cell solution was 90 per well. Microliters were added to a 96-well culture plate. The 96-well plate was placed in a 37° C., 5% CO2 incubator. After the cells were cultured for 24 hours, different concentrations of the compounds to be tested were added. The cells were incubated with the compounds for 72 hours in the presence of 10% fetal bovine serum. Glo Luminescent Cell Viability Assay Kit (see manufacturer's instructions for details) was used to measure ATP content to assess cell growth inhibition. Briefly, 30 μl of Cell Titer-Glo reagent was added to each well, and the plate was shaken for 10 minutes to induce cell lysis. FluoroskanAscentFL (Thermo) assay records the […], and the maximum signal value is obtained from cells treated with DMSO for 72 hours. The minimum signal value was obtained from the medium alone (the number of cells was zero), and the % inhibition rate=(the maximum signal value compound signal value)/(the maximum signal value−the minimum signal value×100%, and the data were processed using Graphpadprism 5 software. By sigmoid Dose-response curve fitting to calculate IC50 value. “A” means IC50≤50 nM; “B” means 50<IC50≤500 nM; “C” means 500<IC50≤2000 nM; “D” means 2000<IC50

Compound | IC50 [µM]
Oc1cc(-c2nc3nc(OC[C@@]45CCCN4CC(F)C5)nc(N4CC5CCC(C4)N5)c3cc2F)c2c(F)cccc2c1 (stereo partly drawn) [Compound 56, 4-(4-((1R,5S)-3,8-diazabicyclo [3.2.1]octan-3-yl)-6-fluoro-2-(((2R,7aS)-2-fluorohexahydro-1H-pyrrolizin-7a-yl)methoxy)pyrido[2,3-d]pyrimidin-7-y1)-5-fluoronaphthalen-2-ol] | ≤ 0.05
C[C@@H]1CNCCN1c1nc(OC[C@@H]2CCCN2C)nc2nc(-c3cccc4c3cnn4C)c(F)cc12 [Compound 42, 6-fluoro-7-(1-methyl-1H-indazol-4-yl)-4-((R)-2-methylpiperazin-1-yl)-2-(((S)-1-methylpyrrolidin-2-yl)methoxy)pyrido [2,3-d]pyrimidine] | > 2
Oc1cc(-c2nc3nc(OCC4(CN5CCCC5)CC4)nc(N4C5CNCC4C5)c3cc2F)c2c(F)cccc2c1 [Compound 51, 4-(4-(3,6-diazabicyclo[3.1.1]heptan-6-yl)-6-fluoro-2-((1-(pyrrolidin-1-ylmethyl)cyclopropyl)methoxy)pyrido[2,3-d]pyrimidin-7-yl)-5-fluoronaphthalen-2-ol] | 0.05 to 0.5
C[C@@H]1CNCCN1c1nc(OC[C@@H]2CCCN2C)nc2nc(-c3cccc4ccccc34)c(F)cc12 [Compound 35, 6-fluoro-4-((R)-2-methylpiperazin-1-yl)-2-(((S)-1-methylpyrrolidin-2-yl)methoxy)-7-(naphthalen-1-yl)pyrido[2,3-d]pyrimidine] | > 2
C[C@@H]1CNCCN1c1nc(OC[C@@H]2CCCN2C)nc2nc(-c3cccc4ccoc34)c(F)cc12 [Compound 40, 7-(benzofuran-7-yl)-6-fluoro-4-((R)-2-methylpiperazin-1-yl)-2-(((S)-1-methylpyrrolidin-2-yl)methoxy)pyrido [2,3-d]pyrimidine] | > 2
C[C@@H]1CNCCN1c1nc(OCCN(C)C)nc2nc(-c3c(O)cccc3F)c(F)cc12 [Compound 2, 2-(2-(2-(dimethylamino)ethoxy)-6-fluoro-4-((R)-2-methylpiperazin-1-yl)pyrido[2,3-d]pyrimidin-7-yl)-3-fluorophenol] | > 2
Oc1cc(-c2nc3nc(OC[C@@]45CCCN4C[C@H](F)C5)nc(N4C5CNCC4C5)c3cc2F)c2c(F)cccc2c1 [Compound 54, 4-(4-(3,6-diazabicyclo [3.1.1]heptan-6-y1)-6-fluoro-2-(((2R,7aS)-2-fluorohexahydro-1H-pyrrolizin-7a-yl)methoxy)pyrido[2,3-d]pyrimidin-7-y1)-5-fluoronaphthalen-2-ol] | ≤ 0.05
CN1C[C@H](F)C[C@H]1COc1nc(N2C3CNCC2C3)c2cc(F)c(-c3cc(O)cc4cccc(F)c34)nc2n1 [Compound 49, 4-(4-(3,6-diazabicyclo[3.1.1]heptan-6-yl)-6-fluoro-2-(((2S,4R)-4-fluoro-1-methylpyrrolidin-2-yl)methoxy)pyrido [2,3-d]pyrimidin-7-y1)-5-fluoronaphthalen-2-ol] | 0.5 to 2
C[C@@H]1CNCCN1c1nc(OC[C@@H]2CCCN2C)nc2nc(-c3ccc4ccccc4c3)c(F)cc12 [Compound 37, 6-fluoro-4-((R)-2-methylpiperazin-1-y1)-2-(((S)-1-methylpyrrolidin-2-yl)methoxy)-7-(naphthalen-2-yl)pyrido[2,3-d]pyrimidine] | > 2
CCc1c(F)ccc2cc(O)cc(-c3nc4nc(OC[C@@]56CCCN5C[C@H](F)C6)nc(N5C[C@H]6CC[C@@H](C5)N6)c4cc3F)c12 [Compound 59, 4-(4-((1R,5S)-3,8-diazabicyclo[3.2.1]octan-3-yl)-6-fluoro-2-(((2R,7aS)-2-fluorotetrahydro-1H-pyrrolizin-7a(5H)-yl)methoxy)pyrido[2,3-d]pyrimidin-7-yl)-5-ethyl-6-fluoronaphthalen-2-ol] | ≤ 0.05
C[C@@H]1CNCCN1c1nc(OC[C@@H]2CCCN2C)nc2nc(-c3cccc4ccncc34)c(F)cc12 [Compound 43, 6-fluoro-7-(isoquinolin-8-y1)-4-((R)-2-methylpiperazin-1-y1)-2-(((S)-1-methylpyrrolidin-2-yl)methoxy)pyrido [2,3-d]pyrimidine] | 0.5 to 2
Oc1cc(-c2nc3nc(OCC4(CN5CC[C@@H](F)C5)CC4)nc(N4C5CNCC4C5)c3cc2F)c2c(F)cccc2c1 [Compound 52, 4-(4-(3,6-diazabicyclo[3.1.1]heptan-6-yl)-6-fluoro-2-((1-(((R)-3-fluoropyrrolidin-1-yl)methyl)cyclopropyl)methoxy)pyrido[2,3-d]pyrimidin-7-yl)-5-fluoronaphthalen-2-ol] | 0.05 to 0.5
C[C@@H]1CNCCN1c1nc(OC[C@@H]2CCCN2C)nc2nc(-c3cccc4ccsc34)c(F)cc12 [Compound 38, 7-(benzo[b]thiophen-7-yl)-6-fluoro-4-((R)-2-methylpiperazin-1-y1)-2-(((S)-1-methylpyrrolidin-2-yl)methoxy)pyrido [2,3-d]pyrimidine] | > 2
C[C@@H]1CNCCN1c1nc(OC[C@@H]2CCCN2C)nc2nc(-c3cccc4ncccc34)c(F)cc12 [Compound 44, 6-fluoro-4-((R)-2-methylpiperazin-1-y1)-2-(((S)-1-methylpyrrolidin-2-yl)methoxy)-7-(quinolin-5-yl)pyrido[2,3-d]pyrimidine] | 0.5 to 2
C[C@@H]1CNCCN1c1nc(OC[C@@H]2CCCN2C)nc2nc(-c3cccc4cccnc34)c(F)cc12 [Compound 39, 6-fluoro-4-((R)-2-methylpiperazin-1-yl)-2-(((S)-1-methylpyrrolidin-2-yl)methoxy)-7-(quinolin-8-yl)pyrido[2,3-d]pyrimidine] | > 2
CN1CCC[C@H]1COc1nc(N2C3CNCC2C3)c2cc(F)c(-c3cc(O)cc4cccc(F)c34)nc2n1 [Compound 48, 4-(4-(3,6-diazabicyclo[3.1.1]heptan-6-yl)-6-fluoro-2-(((S)-1-methylpyrrolidin-2-yl)methoxy)pyrido [2,3-d]pyrimidin-7-yl)-5-fluoronaphthalen-2-ol] | ≤ 0.05
C[C@@H]1CNCCN1c1nc(OC[C@@H]2CCCN2C)nc2nc(-c3ccccc3Cl)c(F)cc12 [Compound 32, 7-(2-chlorophenyl)-6-fluoro-4-((R)-2-methylpiperazin-1-yl)-2-(((S)-1-methylpyrrolidin-2-yl)methoxy)pyrido [2,3-d]pyrimidine] | > 2
CN1CCC[C@H]1COc1nc(N2C3CNCC2C3)c2cc(F)c(-c3cc(O)cc4cccc(Cl)c34)nc2n1 [Compound 47, 4-(4-(3,6-diazabicyclo[3.1.1]heptan-6-yl)-6-fluoro-2-(((S)-1-methylpyrrolidin-2-yl)methoxy)pyrido [2,3-d]pyrimidin-7-yl)-5-chloronaphthalen-2-ol] | 0.05 to 0.5
C[C@@H]1CNCCN1c1nc(OC[C@@H]2CCCN2C)nc2nc(-c3cccc4c3ccn4C)c(F)cc12 [Compound 41, 6-fluoro-7-(1-methyl-1H-indol-4-yl)-4-((R)-2-methylpiperazin-1-yl)-2-(((S)-1-methylpyrrolidin-2-yl)methoxy)pyrido [2,3-d]pyrimidine] | > 2
Oc1cc(-c2nc3nc(OC[C@@H]4C[C@@H](F)CN4C4CC4)nc(N4C5CNCC4C5)c3cc2F)c2c(F)cccc2c1 [Compound 50, 4-(4-(3,6-diazabicyclo[3.1.1]heptan-6-yl)-2-(((2S,4R)-1-cyclopropyl-4-fluoropyrrolidin-2-yl)methoxy)-6-fluoropyrido[2,3-d]pyrimidin-7-yl)-5-fluoronaphthalen-2-ol] | 0.5 to 2
Oc1cc(-c2nc3nc(OC[C@@]45CCCN4C[C@H](F)C5)nc(N4C5CNCC4C5)c3cc2F)c2c(Cl)cccc2c1 [Compound 53, 4-(4-(3,6-diazabicyclo[3.1.1]heptan-6-yl)-6-fluoro-2-(((2R,7aS)-2-fluorohexahydro-1H-pyrrolizin-7a-yl)methoxy)pyrido[2,3-d]pyrimidin-7-yl)-5-chloronaphthalen-2-ol] | ≤ 0.05
Oc1cc(-c2nc3nc(OC[C@@]45CCCN4C[C@H](F)C5)nc(N4C[C@H]5CC[C@@H](C4)N5)c3cc2F)c2c(Cl)cccc2c1 [Compound 55, 4-(4-((1R,5S)-3,8-diazabicyclo [3.2.1]octan-3-yl)-6-fluoro-2-(((2R,7aS)-2-fluorohexahydro-1H-pyrrolizin-7a-yl)methoxy)pyrido[2,3-d]pyrimidin-7-yl)-5-chloronaphthalen-2-ol] | ≤ 0.05
